Two compounds from article PMC8634709, “Neuroprotective Potential of Tamarillo (Cyphomandra betacea) Epicarp Extracts Obtained by Sustainable Extraction Process” (Frontiers in Nutrition, 2021) can be followed below.

Holding throughout (conditions): mean ± SD (n = 3)
Experiment [1] in a line: ABTS radical scavenging assay. The method, then: ABTS^·+ radical scavenging assay was performed according to Re et al. ([32]), with modifications. TE at six different concentrations of each sample [from 2.9 to 29 μg/ml EtOH/H2O (1:1, v/v)] was used, giving a linear response between 20 and 80% of the control absorbance. All the measurements were performed in triplicate. Equation (3) represents the percentage of ABTS^·+ inhibition due to TE extracts and Trolox compared with the ABTS control.
(3) %Inh=AABTS control−(Asample−Asample blank)/AABTS control x 100
where A ABTScontrol is absorbance of radical at t = 0 min; Asample, represents the mean of absorbance readings of TE samples, and ASampleblank is the absorbance of the sample without ABTS. The capacity of free radical scavenging was expressed by IC50 value, and the results represent the mean inhibitory concentration (in μg/ml) of TE against ABTS^·+ radical.

A short description of experiment [2]: ROS scavenging capacity (ORAC method). The method, then:
In this case, a concentration range of extract from 0.62 to 6.2 μg/ml in EtOH/H2O (1:9, v/v) was measured. […] The measurements were carried out in triplicate.
(4) %Inh=AUCControl−AUCsample/AUCcontrol x 100
AUC was calculated by means of Equation (5).
where f0 and fi are fluorescence at t = 0 and every 5 min, respectively.

A short description of experiment [3]: RNS scavenging capacity (NO radical scavenging, Griess reaction). As to the method: Reactive nitrogen species scavenging capacity was measured following the NO^· radical scavenging assay according to Ho et al. ([34]) and based on the Griess reaction. […] Each measurement was carried out in triplicate, and ascorbic acid and rosemary extract were used as chemical and natural positive controls, respectively. The NO scavenging capacity of the extract was expressed through inhibition % calculated as described in Equation (3).
(In general: The Griess reaction detects nitrite, a stable product of nitric oxide.)

Structures are written as SMILES. Marks after values point to notes of the source that are not given here.

For the compound `Cc1c(C)c2c(c(C)c1O)CCC(C)(C(=O)O)O2` (racemic) [Trolox, (±)-6-hydroxy-2,5,7,8-tetramethylchromane-2-carboxylic acid], the “ABTS IC50” value in experiment [1] is reported as 2.500 ± 0.02^a μg/mL extract. For the same compound, the “ROS (ORAC) IC50” value in experiment [2] was 1.290 ± 0.09^a μg/ml.

`O=C1O[C@H]([C@@H](O)CO)C(O)=C1O` [Ascorbic acid]: the “ABTS IC50” value in experiment [1] is given as 25.000 ± 0.30^f μg/mL extract. Further, the “RNS IC50” value in experiment [3] is reported as 1100.901 ± 3.96^c μg/ml.
